Experiments:
[1] = system: dLight1.3b-expressing HEK293T sniffer cells on primary DArgic neurons; assay: DA release imaging from cultured DArgic neurons with dLight1.3b sniffer cells; type: cell-based, mouse; details: 4-AP 250 µM in perfusion
Protocol: Primary DA (DA) neurons were grown on a layer of cortical astrocytes. The astrocytes were first prepared from P0-P2 C57BL6 mice, grown in T75 flask and then seeded on collagen/poly-L-lysine coated 15 mm glass coverslips at a concentration of 100,000 cells/ml. The cells were allowed to grow until close to confluence before the seeding of neurons. Primary DArgic neurons were prepared and cultured from P0-P2 mouse pups using a previously described protocol. Briefly, the ventral midbrain of P0-P2 pups was dissected from DAT^IREScre x Ai9 mice in which DA neurons expressed the red fluorescent protein tdTomato. These were produced by crossing DAT^IREScre mice (catalog #006660, Jackson Labs[31]) to Ai9/tdTomato mice (catalog #007905, Jackson Labs[32]). Both of these lines were on a C57BL/6 J background. Midbrain cells were seeded at a concentration of 240,000 cells/ml on top of the astrocyte monolayer and allowed to grow for 10 days (10 DIV). Two days before imaging, expression of dLight1.3b was induced in stable HEK cells with doxycycline. One day prior to imaging, HEK cells were lifted using trypsin, and 150,000 HEK cells were seeded on top of 10 DIV-cultured neurons in doxycycline-supplemented neuronal medium. Imaging was performed on a confocal microscope (Nikon A1 HD25) using a 40X dry objective and a 488 nm laser to excite dLight1.3b and a 546 nm laser to activate tdTomato and identify DA neurons. On the day of imaging, physiological saline containing drugs at the specified concentration ([…], Sigma; SCH23390, Sigma; DETQ, Enamine) were applied on the culture using a computer-controlled perfusion system (Automate system). A field containing one or more DA neurons was selected based on the tdTomato signal. […]
Event detection was performed using a thresholding algorithm adapted from[80]. In brief, the recorded field of view was divided into square ROIs of 55 um x 55 um size. […] A rolling standard deviation was calculated with the same window size. Events were defined as timepoints at which the fluorescence intensity reading exceeds the averaged intensity by 5 standard deviations.

DRD1-MSNs = assay: Whole-cell electrophysiology of DRD1-MSNs in dorsal striatum brain slices; type: cell-based, mouse
Protocol: For experiments involving SKF38393 application, to identify DRD1 receptor (DRD1)-positive neurons in the dorsal striatum, DRD1:cre mice injected with AAV5-hSyn-dlox-ChrimsonR-tdTomato were used. 3–4 weeks after viral injection, mice were anesthetized with 5% isoflurane and euthanized by decapitation. […] Slices were kept at 34 °C for 10–20 minutes and then at room temperature until recordings. In the recording chamber, slices were superfused with ACSF at 30–32 °C. Patch pipettes (3–7 MΩ) were pulled from borosilicate glass pipettes (GC150T-10, Harvard Apparatus). The internal solution contained (in mM): potassium gluconate 130, MgCl2 4, MgATP 3.4, Na3GTP 0.1, creatine phosphate 10, HEPES 5, and EGTA 1.1. The membrane potential was measured using EPC 10 USB Patch Clamp Amplifiers (HEKA). The access resistance was monitored by a hyperpolarizing step of −10 mV. The identification of DRD1-positive neurons was performed by the presence of red fluorescence protein and photo-evoked current or potential (@2 Hz, 10 ms duration, 2 pulses or 500 ms continuous pulse. light source: Colibri 7, Zeiss; 630 nm wavelength, 1 mW). To assess the excitability of neurons, positive currents were injected (0–500 pA) and the number of action potentials was counted at each current step. To measure input resistance, negative currents were injected (−200 to 0 pA, every 50 pA, 500 ms), as previously described. The resting membrane potential was measured at 0 pA current input.
Action potentials were evoked by current injection (50–500 pA, 500 ms) in current-clamped neurons. Neurons were recorded from in the presence of picrotoxin (100 µM), CGP55485 (0.3 µM), DNQX (10 µM), and MK801 (10 µM) to block GABAA, GABAB, AMPA and NMDA receptors, respectively. DA (10 µM) was applied to brain slices in the presence of cocaine (5 µM) to prevent reuptake.

human DRD1 (hmDRD1) = details: human clones; ref Hao et al., 2019; Wang et al., 2018; cited from earlier work
msDRD1 = target: T1, msDRD1 (Mus musculus, UniProt Q61616); details: rodent (rat or mouse); ref Hao et al., 2019; Wang et al., 2018; cited from earlier work
T1 construct: expressed in transfected cells; host or cells: HEK293T

dLight1.3b = dLight1.3b (Homo sapiens, UniProt P21728); assay: DA titrations on dLight1.3b-expressing HEK293 cells (confocal fluorescence imaging); type: cell-based; details: D1-PAM 5 μM
Protocol: Cells were transfected at 50–60% confluency in glass-bottomed dishes (either individually or in 24-well plates) using the Effectene transfection kit (Qiagen) according to manufacturer instructions, and imaged 24–48 h after transfection. The Flp-In™ T-REx™ 293 cells (Thermo Fisher) with a stably integrated dLight1.3b cassette[48] were cultured as follows: the cells were cultured using HEK293T cell medium with the addition of Blasticidin (15 µg/ml) and Hygromycin B (200 µg/ml). To induce the expression of dLight1.3b, doxycycline (500 ng/ml) was added to the culture medium for 24–48 hours. Before imaging, cells were rinsed with 1 mL of Hank’s Balanced Salt Solution (HBSS, Life Technologies) supplemented with Ca^2+ (2 mM) and Mg^2+ (1 mM), and imaged at room temperature with a final HBSS volume of either 100 µL for each individual 1.5 cm glass bottom dish, or 500 µL for 24-well plates. Time-lapse imaging was performed on an inverted Zeiss LSM 800 confocal microscope using a 488 nm laser and a 40X oil-based objective. During imaging, ligands were added in bolus on the cells using a micropipette to reach the final specified concentrations of ligand over the cells. For quantification, except otherwise noted, regions of interest (ROI) were selected manually using the threshold function of Fiji to isolate the cell membrane. Sensor response (∆F/F) was calculated as the following: (F(t)-F_base)/F_base with F(t) being the ROI fluorescence value at each time point (t), and F_base being the mean fluorescence of the 10-time points immediately prior to ligand addition.

T1 sequence (Q61616 whole entry): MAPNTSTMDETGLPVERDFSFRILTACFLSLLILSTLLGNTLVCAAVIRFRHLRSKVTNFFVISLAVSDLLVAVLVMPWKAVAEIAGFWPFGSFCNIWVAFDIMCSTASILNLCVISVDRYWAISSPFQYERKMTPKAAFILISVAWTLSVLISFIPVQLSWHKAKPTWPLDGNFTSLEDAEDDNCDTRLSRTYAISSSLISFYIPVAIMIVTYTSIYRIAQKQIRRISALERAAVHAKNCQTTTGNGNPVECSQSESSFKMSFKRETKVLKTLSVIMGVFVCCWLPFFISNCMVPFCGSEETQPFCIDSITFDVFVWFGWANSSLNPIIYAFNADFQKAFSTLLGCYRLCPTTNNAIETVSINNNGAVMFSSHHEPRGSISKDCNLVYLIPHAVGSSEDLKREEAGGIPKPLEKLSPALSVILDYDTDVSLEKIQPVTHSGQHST

For `Nc1ccncc1` [4-AP, 4-aminopyridine], the DA release events [1] was “larger localized DA release events started to become noticeable”.
In the case of `NCCc1ccc(O)c(O)c1` [DA, Dopamine], the “number of action potentials evoked by current injection” value (DRD1-MSNs; DA 10 µM bath application vs control) is reported as “increased the number of action potentials”.
For `C[C@H]1c2cccc(CCC(C)(C)O)c2C[C@H](CO)N1C(=O)Cc1c(Cl)cccc1Cl` [LY315207, 2-(2,6-Dichlorophenyl)-1-((1S,3R)-5-(3-hydroxy-3-methylbutyl)-3-(hydroxymethyl)-1-methyl-3,4-dihydroisoquinolin-2(1H)-yl)ethan-1-one], the “maximal potentiation of dopamine” value (human DRD1 (hmDRD1)) is listed as 75-85% and the “partial potentiation of dopamine (% of max potentiation)” value (msDRD1) is listed as 45-53%.
For `Cn1c2ccccc2c(=O)c2c(=O)n(-c3ccccc3)c(C3CCCCC3)nc21` [MLS1082], the “effect on the DA sensitivity of dLight1.3b” value (dLight1.3b) was “did not have a noticeable effect”.
In the case of `CC(C)(C)C1CCc2c(sc(NC(=O)c3ccncc3)c2C(N)=O)C1` (stereo not shown) [MLS6585], the “effect on the DA sensitivity of dLight1.3b” value (dLight1.3b) is reported as “did not have a noticeable effect”.
In the case of `Oc1cc2c(cc1O)C(c1ccccc1)CNCC2` (stereo not shown) [SKF38393], the “firing rate during current-injection of DRD1-MSNs” value (DRD1-MSNs; SKF38393 1 µM superfusion) is reported as “significant increase”.

Reference: paper PMC11219860, “A chemogenetic approach for dopamine imaging with tunable sensitivity” (Nature Communications, 2024)
